Source: US20250066377A1, “AMINO CHROMEN-2-ONE MODULATORS OF POLRMT” (Pretzel Therapeutics, Inc., priority 2021, published 2025)

Target: POLRMT (Homo sapiens (Human), UniProt O00411)
Assay: POLRMT homogeneous TR-FRET mitochondrial transcription assay
Assay type: biochemical
Details: inhibition of POLRMT; TR-FRET detection of 407 bp RNA transcript; 7.5 nM POLRMT, 15 nM TFB2M, 30 nM TFAM, 60 minutes at 37° C.
Method: The inhibitory activity of the compounds of the present invention against POLRMT were determined by assays based on Bergbrede, T., et al., “An adaptable high-throughput technology enabling the identification of specific transcription modulators,” SLAC Discov., 22, 378-386 (2017).
The ability of some compounds of the present invention to inhibit POLRMT were determined in a homogeneous TR-FRET Assay using high-throughput screening in a 384-well plate format. This method is used to monitor the activity of mitochondrial transcription through measurement of its product, a 407 bp long RNA transcript. Detection of the product is facilitated by hybridization of two DNA-oligonucleotide probes to specific and adjacent sequences within the RNA product sequence. Upon annealing of the probes, two fluorophores are coupled directly to an acceptor nucleotide probe (ATTO647, 5′), or introduced via a coupled streptavidin with a biotinylated donor nucleotide probe (Europium cryptate) that is brought into sufficient proximity to serve as a fluorescence-donor-acceptor pair. Thus, a FRET signal at 665 nm is generated upon excitation at 340 nm.
Proteins used as transcription factors (POLRMT: NP_005026.3, TFAM: NP_003192.1, TFB2M: NP_071761.1) are diluted from their stocks to working concentrations of 1 μM, 20 μM and 4 μM respectively, in a dilution buffer containing 20 mM Tris-HCl (pH 8.0), 200 mM NaCl, 10% (v/v) glycerol, 1 mM Dithiothreitol (DTT), 0.5 mM EDTA.
DNA template is a pUC18 plasmid with the mitochondrial light strand promotor sequence (1-477) cloned between HindIII and BamHI sites. The DNA template is restriction linearized proximal to the promotor 3′-end (pUC-LSP).
The reaction mixture (10 uL) containing 7.5 nM POLRMT, 15 nM of TFB2M, 30 nM of TFAM, 0.5 nM of DNA template and 500 μM nucleotide triphosphate mix (NTPs) in a reaction buffer (containing 10 mM Tris-HCl (pH 7.5), 10 mM MgCl2, 40 mM NaCl, 10 mM DTT, 0.005% (w/v) Tween-20, 160 units/ml Rnase inhibitor and 0.1 mg/mL BSA) are dispensed to compounds in microplates, using a Thermo Multidrop® dispenser, and incubated at 37° C. in a VWR INCU-Line incubator for 60 minutes after mixing. No nucleotide triphosphate mix is added to negative control samples. Microplates with compounds to be tested in the assay are prepared from 10 mM compound stocks in 100% DMSO, equal amounts of DMSO without any compound are added to positive control and negative control samples.
During the incubation, a mix of the detection reagents is prepared in a buffer such that the enzymatic reaction is terminated due to chelating of Mg-ions and increased ionic strength, containing 50 mM Tris-HCl (pH 7.5), 700 mM NaCl, 20 mM EDTA, and 0.01% (w/v) Tween-20. Europium-streptavidin is pre-incubated with a 200-fold molar excess of a random sequence oligonucleotide to block unspecific binding of oligo, for two hours at ambient temperature in the dark. Afterwards, the blocked Europium-streptavidin is kept on ice until use.
At the end of the enzymatic reaction time, 5 μL detection oligo mix in the detection buffer is added, and assay plates are mixed and kept at ambient temperature for one hour, protected from light. The concentration of the Acceptor nucleotide oligo (e.g., ATTO647N-5′-[…]-3′) and Donor nucleotide oligo (e.g., bio-5′-AACACATCTCT(-bio)GCCAAACCCCA-bio-3′) in each assay well is 1 nM, and 3 nM, respectively.
After incubation with oligo mix, 5 μL of pre-blocked Europium-streptavidin reagent is dispensed to each assay well, assay plates are again mixed and kept at ambient temperature for one hour, protected from light.
The generated signal is measured with BMG Pherastar microtiter plate reader with a TRF light unit, using excitation at 340 nm, an integration time of 200 μs, and a delay time of 100 μs, before detection at 620 nm and 665 nm. The ratio of donor- and acceptor-fluorescence is used as a measure of the generated transcript product (i.e. enzymatic activity).

Chain of POLRMT (O00411 42-1230): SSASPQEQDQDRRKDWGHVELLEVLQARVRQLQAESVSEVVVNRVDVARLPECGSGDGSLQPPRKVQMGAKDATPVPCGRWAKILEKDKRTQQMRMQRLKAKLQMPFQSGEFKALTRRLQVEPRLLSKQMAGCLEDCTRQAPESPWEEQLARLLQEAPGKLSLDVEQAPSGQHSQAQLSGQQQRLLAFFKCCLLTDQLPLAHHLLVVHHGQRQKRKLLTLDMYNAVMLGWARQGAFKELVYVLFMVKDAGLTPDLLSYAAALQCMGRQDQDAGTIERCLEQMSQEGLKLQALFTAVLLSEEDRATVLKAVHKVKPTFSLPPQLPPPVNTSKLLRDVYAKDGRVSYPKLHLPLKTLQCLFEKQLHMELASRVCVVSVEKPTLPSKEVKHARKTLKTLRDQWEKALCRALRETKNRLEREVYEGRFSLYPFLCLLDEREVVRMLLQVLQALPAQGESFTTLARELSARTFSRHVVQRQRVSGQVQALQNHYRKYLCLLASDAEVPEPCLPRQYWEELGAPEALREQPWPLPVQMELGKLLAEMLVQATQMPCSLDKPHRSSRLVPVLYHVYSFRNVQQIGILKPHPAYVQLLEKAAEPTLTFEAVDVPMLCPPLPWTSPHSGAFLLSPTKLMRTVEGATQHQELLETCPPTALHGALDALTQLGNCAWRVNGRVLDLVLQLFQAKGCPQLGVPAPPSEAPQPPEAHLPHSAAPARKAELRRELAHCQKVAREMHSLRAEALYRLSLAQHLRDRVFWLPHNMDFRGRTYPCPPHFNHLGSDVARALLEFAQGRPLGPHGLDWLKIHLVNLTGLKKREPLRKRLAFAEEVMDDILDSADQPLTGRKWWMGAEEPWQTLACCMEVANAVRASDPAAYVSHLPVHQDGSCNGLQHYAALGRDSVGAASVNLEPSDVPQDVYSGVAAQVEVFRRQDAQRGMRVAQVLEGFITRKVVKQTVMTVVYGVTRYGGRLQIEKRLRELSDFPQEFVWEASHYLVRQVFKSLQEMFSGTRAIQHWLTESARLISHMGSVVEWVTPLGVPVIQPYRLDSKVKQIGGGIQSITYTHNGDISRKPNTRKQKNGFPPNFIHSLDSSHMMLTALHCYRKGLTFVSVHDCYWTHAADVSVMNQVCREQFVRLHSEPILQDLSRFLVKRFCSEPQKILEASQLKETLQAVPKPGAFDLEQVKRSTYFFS

Row | SMILES | IC50 [nM]
1 | COCC1CCN(c2ccc3c(-c4ccccc4C)cc(=O)oc3n2)C1 (racemic) [Example 12, 7-(3-(methoxymethyl)pyrrolidin-1-yl)-4-(o-tolyl)-2H-pyrano[2,3-b]pyridin-2-one] | 900
2 | Cc1ccccc1-c1cc(=O)oc2nc(N3CCOCC3C)ccc12 (single isomer, unassigned) [Example 14, 7-(3-methylmorpholino)-4-(o-tolyl)-2H-pyrano[2,3-b]pyridin-2-one] | 400
3 | Cc1ccccc1-c1cc(=O)oc2nc(N3CCC(C)(O)C3)ccc12 (racemic) [Example 13, 7-(3-hydroxy-3-methylpyrrolidin-1-yl)-4-(o-tolyl)-2H-pyrano[2,3-b]pyridin-2-one] | 300
4 | Cc1ccccc1-c1cc(=O)oc2nc(N3CCC(F)(F)C3)ccc12 [Example 17, 7-(3,3-difluoropyrrolidin-1-yl)-4-(o-tolyl)-2H-pyrano[2,3-b]pyridin-2-one] | 600
5 | CCN(C)c1ccc2c(-c3ccccc3C)cc(=O)oc2n1 [Example 05, 7-(ethyl(methyl)amino)-4-(o-tolyl)-2H-pyrano[2,3-b]pyridin-2-one] | 400
6 | Cc1ccccc1-c1cc(=O)oc2nc(N3CCC(F)C3)ccc12 (stereo not drawn) [Example 18, 7-(3-fluoropyrrolidin-1-yl)-4-(o-tolyl)-2H-pyrano[2,3-b]pyridin-2-one] | 1000
7 | Cc1ccccc1-c1cc(=O)oc2nc(N3CC4(COC4)C3)ccc12 [Example 10, 7-(2-oxa-6-azaspiro[3.3]heptan-6-yl)-4-(o-tolyl)-2H-pyrano[2,3-b]pyridin-2-one] | 86000
8 | CC(=O)N1CCN(c2ccc3c(-c4ccccc4C)cc(=O)oc3n2)CC1 [Example 06, 7-(4-acetylpiperazin-1-yl)-4-(o-tolyl)-2H-pyrano[2,3-b]pyridin-2-one] | > 100000
9 | Cc1ccccc1-c1cc(=O)oc2nc(N3CCCC3)ccc12 [Example 03, 7-(pyrrolidin-1-yl)-4-(o-tolyl)-2H-pyrano[2,3-b]pyridin-2-one] | 200
10 | O=c1cc(-c2ccc(F)cc2Cl)c2ccc(N3CCOCC3)nc2o1 [Example 21, 4-(2-chloro-4-fluorophenyl)-7-morpholino-2H-pyrano[2,3-b]pyridin-2-one] | 3000
11 | Cc1ccccc1-c1cc(=O)oc2nc(N3CCC(N(C)C)C3)ccc12 (stereo not drawn) [Example 08, 7-[3-(dimethylamino)pyrrolidin-1-yl]-4-(o-tolyl)pyrano[2,3-b]pyridin-2-one] | 18000
12 | Cc1ccccc1-c1cc(=O)oc2nc(N(C)C)ccc12 [Example 01, 7-(dimethylamino)-4-(o-tolyl)-2H-pyrano[2,3-b]pyridin-2-one] | 1000
13 | Cc1ccccc1-c1cc(=O)oc2nc(N3CCOCC3)ccc12 [Example 02, 7-morpholino-4-(o-tolyl)-2H-pyrano[2,3-b]pyridin-2-one] | 2000

The next lines start with the values.

Row | IC50 [nM] | SMILES
14 | 400 | COCC1CCN(c2ccc3c(-c4ccccc4C)cc(=O)oc3n2)C1 (single isomer, unassigned) [Example 31, 7-(3-(methoxymethyl)pyrrolidin-1-yl)-4-(o-tolyl)-2H-pyrano[2,3-b]pyridin-2-one]
15 | 500 | Cc1ccccc1-c1cc(=O)oc2nc(N(C)C(C)C(N)=O)ccc12 (single isomer, unassigned) [Example 48, 2-(methyl(2-oxo-4-(o-tolyl)-2H-pyrano[2,3-b]pyridin-7-yl)amino)propanamide]
16 | 1000 | COCC1CCN(c2ccc3c(-c4ccccc4C)cc(=O)oc3n2)C1 (single isomer, unassigned) [Example 32, 7-(3-(methoxymethyl)pyrrolidin-1-yl)-4-(o-tolyl)-2H-pyrano[2,3-b]pyridin-2-one]
17 | 3000 | COC1CCN(c2ccc3c(-c4ccccc4C)cc(=O)oc3n2)C1 (single isomer, unassigned) [Example 24, 7-(3-methoxypyrrolidin-1-yl)-4-(o-tolyl)-2H-pyrano[2,3-b]pyridin-2-one]
18 | 7000 | CNC(=O)CCN(C)c1ccc2c(-c3ccccc3C)cc(=O)oc2n1 [Example 43]
19 | 6000 | Cc1ccccc1-c1cc(=O)oc2nc(N(C)CC(=O)NCC(=O)O)ccc12 [Example 60, N-methyl-N-(2-oxo-4-(o-tolyl)-2H-pyrano[2,3-b]pyridin-7-yl)glycylglycine]
20 | 57000 | CNC(=O)CCN(C)c1ccc2c(-c3ccc(F)cc3Cl)cc(=O)oc2n1 [Example 47, 3-((4-(2-chloro-4-fluorophenyl)-2-oxo-2H-pyrano[2,3-b]pyridin-7-yl)(methyl)amino)-N-methylpropanamide]
21 | 1000 | Cc1ccccc1-c1cc(=O)oc2nc(N3CCC(C)(O)C3)ccc12 (single isomer, unassigned) [Example 28, 7-(3-hydroxy-3-methylpyrrolidin-1-yl)-4-(o-tolyl)-2H-pyrano[2,3-b]pyridin-2-one]
22 | 20000 | Cc1ccccc1-c1cc(=O)oc2nc(N3CCC(C(=O)O)C3)ccc12 (single isomer, unassigned) [Example 34, 1-(2-oxo-4-(o-tolyl)-2H-pyrano[2,3-b]pyridin-7-yl)pyrrolidine-3-carboxylic acid]
23 | 7000 | Cc1ccccc1-c1cc(=O)oc2nc(N3CCC(C(=O)O)C3)ccc12 (single isomer, unassigned) [Example 33, 1-(2-oxo-4-(o-tolyl)-2H-pyrano[2,3-b]pyridin-7-yl)pyrrolidine-3-carboxylic acid]
24 | 1000 | Cc1ccccc1-c1cc(=O)oc2nc(N(C)CC(=O)O)ccc12 [Example 36, N-methyl-N-(2-oxo-4-(o-tolyl)-2H-pyrano[2,3-b]pyridin-7-yl)glycine]
25 | 1000 | CNC(=O)CN(C)c1ccc2c(-c3ccccc3C)cc(=O)oc2n1 [Example 39, N-methyl-2-[methyl-[4-(o-tolyl)-2-oxo-pyrano[2,3-b]pyridin-7-yl]amino]acetamide]
26 | 100 | Cc1cccc(C)c1-c1cc(=O)oc2nc(N3CCC[C@@H]3C(=O)O)ccc12 [Example 51, (4-(2,6-dimethylphenyl)-2-oxo-2H-pyrano[2,3-b]pyridin-7-yl)-D-proline]
27 | 200 | Cc1ccccc1-c1cc(=O)oc2nc(N3CCCC3C(=O)O)ccc12 (single isomer, unassigned) [Example 37, 1-(2-oxo-4-(o-tolyl)-2H-pyrano[2,3-b]pyridin-7-yl)pyrrolidine-2-carboxylic acid]
